# Data published in publication PMC3827244, “An Ultrasensitive High Throughput Screen for DNA Methyltransferase 1-Targeted Molecular Probes” (PLoS ONE, 2013).
# How the values were obtained:
# CD-DNMT3A/DNMT3L complex = biological target: T1, CD-DNMT3A/DNMT3L complex (Homo sapiens, UniProt Q9Y6K1); test: Compound selectivity, endonuclease-coupled DNA methylation assay; type: biochemical; conditions: 20 µM inhibitor; for Percent activity, DNMT3A/DNMT3L Complex: 20 nM methyltransferase, 0.25 mM SAM
# T1 construct: CD-DNMT3A; amino acids 611–912; His tag (N); made in house; host or cells: Rosetta 2(DE3)pLysS (E. coli) for CD-DNMT3A
# Method: (§1) Triplicate assays (100 µl) containing 0.25 mM SAM, 0.2 µM oligonucleotide 8006, 0.8 U GlaI, 20 nM methyltransferase, 20 µM inhibitor and 1% DMSO were conducted in 96 well plates. Following enzyme addition, assay plates were incubated at 37°C for 75 min and fluorescence was measured in a BioTek Neo plate reader. A control containing only GlaI was subtracted from each assay. […] Percent activity was determined by comparing product formation to a DMSO containing control assay.
# [1] = biological target: T2, RFTS-containing DNMT1 (amino acids 351–1616) (Homo sapiens, UniProt P26358); test: as above; type: biochemical; conditions: 20 µM inhibitor, 20 nM methyltransferase, 0.25 mM SAM
# T2 construct: RFTS-containing DNMT1, amino acids 351–1616; made in house
# Method: as §1
# M.SssI DNMT = biological target: T3, M.SssI DNMT (Spiroplasma monobiae, UniProt P15840); test: as above; type: biochemical, bacterial; conditions: 1.25 h; 20 µM inhibitor, 20 nM methyltransferase, 0.25 mM SAM; read-out: Percent activity, M.SssI DNMT
# T3 construct: purchased New England Biolabs
# Method: as §1, with “After identifying direct inhibitors of DNMT1 lacking the RFTS domain, inhibitor selectivity was assessed by examining inhibition of RFTS-containing DNMT1 (amino acids 351–1616), CD-DNMT3A/DNMT3L complex, and the bacterial cytosine methyltransferase from M. SssI (New England Biolabs) using the endonuclease-coupled DNA methylation assay. Triplicate” for “Triplicate”
# HepG2 cells = test system: HepG2 cells; design: method as in PMID 22939515; conditions: cited from earlier work
# [2] = biological target: T4, DNMT1 (amino acids 621–1616) (Homo sapiens, UniProt P26358); test: Concentration-dependence (IC50), endonuclease-coupled DNA methylation assay; type: biochemical; conditions: for IC50: 10 µM SAM, 20 nM oligonucleotide 8006, 2 nM DNMT1, 95% confidence interval in brackets
# T4 construct: RFTS-lacking DNMT1, amino acids 621–1616; made in house
# Method: IC50 values for each validated direct inhibitor were determined under identical assay conditions (10 µM SAM and 20 nM oligonucleotide 8006) using the endonuclease-coupled DNA methylation assay in triplicate (80 µl) in a 96 well format. Assays contained 0.8 U GlaI, 2 nM DNMT1 (amino acids 621–1616) and 0.94% DMSO with inhibitor concentration varied from 0 to 10 µM. FAM fluorescence was measured in a Biotek Neo plate reader over the course of 45 minutes. A control containing GlaI in the absence of DNMT1 was subtracted from each assay condition. Corrected assay traces were fitted in Prism and percent activity was determined by comparing to a DMSO containing control. IC50 values were determined by fitting the percent activity data using a unity Hill slope in Prism.
# DNMT1 = conditions: cited from earlier work
# [3] = test system: MCF-7 breast cancer cells; conditions: cited from earlier work
# [4] = test system: Rgs6−/− mouse embryonic fibroblasts; design: method as in PMID 23995786; conditions: murine Rgs6−/− mouse embryonic fibroblasts; cited from earlier work
# T3 sequence (P15840 whole entry): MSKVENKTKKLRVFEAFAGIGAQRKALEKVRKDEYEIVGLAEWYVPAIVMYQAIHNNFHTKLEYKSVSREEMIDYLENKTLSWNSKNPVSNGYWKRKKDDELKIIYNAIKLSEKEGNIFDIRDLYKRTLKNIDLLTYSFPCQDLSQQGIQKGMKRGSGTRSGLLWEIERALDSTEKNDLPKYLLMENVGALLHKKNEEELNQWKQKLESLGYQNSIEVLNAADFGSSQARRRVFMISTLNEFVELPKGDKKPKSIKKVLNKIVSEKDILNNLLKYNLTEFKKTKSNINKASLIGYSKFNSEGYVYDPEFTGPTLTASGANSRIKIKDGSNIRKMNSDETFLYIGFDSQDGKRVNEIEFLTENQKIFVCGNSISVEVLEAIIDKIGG
# T4 sequence (P26358 621-1616): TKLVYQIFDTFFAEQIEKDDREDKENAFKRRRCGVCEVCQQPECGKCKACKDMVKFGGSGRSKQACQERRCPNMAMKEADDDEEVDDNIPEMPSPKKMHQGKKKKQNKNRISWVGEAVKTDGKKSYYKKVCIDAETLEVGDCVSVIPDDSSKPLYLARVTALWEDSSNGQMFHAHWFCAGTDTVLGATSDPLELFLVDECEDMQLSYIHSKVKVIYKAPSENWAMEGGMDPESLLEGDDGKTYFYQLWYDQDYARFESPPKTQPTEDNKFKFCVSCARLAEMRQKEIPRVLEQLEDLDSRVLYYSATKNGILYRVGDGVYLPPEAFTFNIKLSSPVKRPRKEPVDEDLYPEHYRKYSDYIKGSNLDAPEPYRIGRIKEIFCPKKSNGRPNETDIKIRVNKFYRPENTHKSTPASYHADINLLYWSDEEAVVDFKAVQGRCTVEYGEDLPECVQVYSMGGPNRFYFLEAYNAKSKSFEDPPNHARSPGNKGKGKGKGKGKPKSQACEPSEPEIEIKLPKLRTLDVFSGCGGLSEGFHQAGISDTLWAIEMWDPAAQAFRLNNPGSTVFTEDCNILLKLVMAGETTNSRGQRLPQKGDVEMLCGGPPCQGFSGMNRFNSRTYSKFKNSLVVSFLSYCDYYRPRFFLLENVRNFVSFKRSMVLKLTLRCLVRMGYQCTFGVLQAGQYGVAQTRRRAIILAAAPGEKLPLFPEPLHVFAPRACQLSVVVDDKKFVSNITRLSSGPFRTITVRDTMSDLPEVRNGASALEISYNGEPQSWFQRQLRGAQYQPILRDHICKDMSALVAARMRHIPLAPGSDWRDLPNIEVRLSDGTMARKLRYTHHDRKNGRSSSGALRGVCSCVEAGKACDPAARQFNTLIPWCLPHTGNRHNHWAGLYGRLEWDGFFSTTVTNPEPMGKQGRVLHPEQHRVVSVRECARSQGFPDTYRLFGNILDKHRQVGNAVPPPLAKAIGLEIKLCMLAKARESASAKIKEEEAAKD
# T2 sequence (P26358 351-1616): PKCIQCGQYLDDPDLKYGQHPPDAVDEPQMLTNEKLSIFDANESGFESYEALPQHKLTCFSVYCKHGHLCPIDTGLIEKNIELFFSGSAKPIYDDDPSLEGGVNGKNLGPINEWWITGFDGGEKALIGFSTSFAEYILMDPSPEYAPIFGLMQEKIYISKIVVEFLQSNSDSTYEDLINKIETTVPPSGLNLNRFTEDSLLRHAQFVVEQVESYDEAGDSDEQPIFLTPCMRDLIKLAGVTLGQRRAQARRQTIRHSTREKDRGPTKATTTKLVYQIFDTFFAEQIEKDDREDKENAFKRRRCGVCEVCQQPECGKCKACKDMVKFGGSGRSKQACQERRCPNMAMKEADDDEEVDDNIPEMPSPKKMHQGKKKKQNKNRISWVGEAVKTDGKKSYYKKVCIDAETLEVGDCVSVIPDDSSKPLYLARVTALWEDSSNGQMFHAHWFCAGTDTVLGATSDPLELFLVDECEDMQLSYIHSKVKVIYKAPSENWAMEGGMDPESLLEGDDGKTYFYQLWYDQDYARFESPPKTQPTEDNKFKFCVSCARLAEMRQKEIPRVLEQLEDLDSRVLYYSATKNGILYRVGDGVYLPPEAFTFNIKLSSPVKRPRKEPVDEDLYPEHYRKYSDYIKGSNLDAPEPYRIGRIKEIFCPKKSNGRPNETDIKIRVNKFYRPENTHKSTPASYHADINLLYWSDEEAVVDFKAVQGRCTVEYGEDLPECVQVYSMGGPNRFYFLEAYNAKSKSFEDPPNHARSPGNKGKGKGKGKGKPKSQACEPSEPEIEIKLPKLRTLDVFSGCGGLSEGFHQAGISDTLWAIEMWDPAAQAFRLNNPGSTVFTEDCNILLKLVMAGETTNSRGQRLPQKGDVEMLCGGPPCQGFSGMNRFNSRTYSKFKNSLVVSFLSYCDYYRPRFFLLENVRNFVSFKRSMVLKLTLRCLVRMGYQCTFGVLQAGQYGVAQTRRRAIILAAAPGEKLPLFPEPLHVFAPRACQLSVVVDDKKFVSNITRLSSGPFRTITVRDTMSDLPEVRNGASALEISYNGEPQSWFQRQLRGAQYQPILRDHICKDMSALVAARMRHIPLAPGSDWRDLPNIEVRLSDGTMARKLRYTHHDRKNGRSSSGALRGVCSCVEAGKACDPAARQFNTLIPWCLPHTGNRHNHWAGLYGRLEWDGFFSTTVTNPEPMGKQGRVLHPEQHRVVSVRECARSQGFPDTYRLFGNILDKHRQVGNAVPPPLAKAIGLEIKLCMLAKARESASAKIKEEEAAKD
# T1 sequence (Q9Y6K1 611-912): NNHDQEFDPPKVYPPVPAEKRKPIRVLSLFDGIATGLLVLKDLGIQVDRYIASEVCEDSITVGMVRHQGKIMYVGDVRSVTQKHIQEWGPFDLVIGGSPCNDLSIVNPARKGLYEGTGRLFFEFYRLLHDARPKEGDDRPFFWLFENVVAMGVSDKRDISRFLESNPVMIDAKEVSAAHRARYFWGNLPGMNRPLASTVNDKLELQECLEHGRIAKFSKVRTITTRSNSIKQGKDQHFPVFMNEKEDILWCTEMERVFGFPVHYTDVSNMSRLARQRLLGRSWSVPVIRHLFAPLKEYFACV
# T1 sequence (Q9UJW3 whole entry partner, the tested form may be a part): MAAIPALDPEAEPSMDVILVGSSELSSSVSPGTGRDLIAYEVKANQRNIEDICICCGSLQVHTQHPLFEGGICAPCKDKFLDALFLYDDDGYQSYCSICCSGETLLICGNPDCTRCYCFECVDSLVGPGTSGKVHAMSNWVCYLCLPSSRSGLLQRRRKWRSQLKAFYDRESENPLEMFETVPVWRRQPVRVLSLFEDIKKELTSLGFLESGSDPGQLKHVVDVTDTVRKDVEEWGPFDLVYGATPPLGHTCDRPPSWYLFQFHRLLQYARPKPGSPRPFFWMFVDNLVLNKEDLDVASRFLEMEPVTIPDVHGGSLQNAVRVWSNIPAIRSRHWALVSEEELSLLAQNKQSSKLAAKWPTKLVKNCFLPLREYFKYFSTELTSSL
Structure (SMILES),selectivity for DNMT1 versus DNMT3A/DNMT3L (in words) (CD-DNMT3A/DNMT3L complex),"Percent activity, DNMT3A/DNMT3L Complex (CD-DNMT3A/DNMT3L complex) [%]","Percent activity, RFTS-containing Dnmt1 [1] [%]",remaining activity at 20 µM (M.SssI DNMT) [%],levels of DNA methylation (HepG2 cells),IC50 [2] [nM],potency relative to alizarin (cmpd 26) ([2]; more potent than alizarin) [fold],selectivity for DNMT1 over DNMT3A/DNMT3L (CD-DNMT3A/DNMT3L complex) [fold],mechanism of inhibition (DNMT1),expression of methylation-silenced genes [3],DNMT1-dependent oncogenic transformation and apoptosis [4]
"Oc1cc(Cl)ccc1Oc1ccc(Cl)cc1Cl [Cmpd 13, triclosan]",nonselective,23±10,25±8,25 ± 4,reduced the levels of DNA methylation,–,–,–,–,–,–
O=C(O)c1cc(O)c2c(c1)[C@@H]([C@H]1c3cc(C(=O)O)cc(O)c3C(=O)c3c(O[C@H]4O[C@H](CO)[C@@H](O)[C@H](O)[C@H]4O)cccc31)c1cccc(O[C@H]3O[C@H](CO)[C@@H](O)[C@H](O)[C@H]3O)c1C2=O [Cmpd 22],–,88±11,40±10,20 ± 5,–,470,–,–,–,–,–
CC1/C=C/C=C/C=C/C=C/C=C/C=C/C=C/C(O[C@@H]2O[C@H](C)[C@H](O)[C@@H](O)[C@@H]2N)CC(O)C(C(=O)O)C(O)CC(=O)CC(O)CC(O)CC(O)CC(=O)CCCC(=O)CC(=O)OC1C(C)CC(C)C(O)CC(=O)c1ccc(N)cc1 (stereo partly drawn) [Cmpd 24],–,49±16,–,49 ± 12,–,400,–,–,–,–,–
"O=C1c2ccccc2C(=O)c2c1ccc(O)c2O [Cmpd 26, alizarin]",nonselective,49±12,51±10,68 ± 11,–,–,–,–,–,–,–
"CSc1nc2cc(Cl)c(Oc3cccc(Cl)c3Cl)cc2[nH]1 [Cmpd 29, triclabendazole]",exhibited selectivity,110±5,–,19 ± 6,–,–,–,–,–,–,–
O=c1c(O)c(-c2ccc(O)c(O)c2)oc2c(O)c(O)cc(O)c12 [Cmpd 33],–,74±13,38±13,86 ± 9,–,–,–,–,–,–,–
O=C(O)c1cc(O)c2c(c1)[C@@H]([C@@H]1c3cc(C(=O)O)cc(O)c3C(=O)c3c(O[C@H]4O[C@H](CO)[C@@H](O)[C@H](O)[C@H]4O)cccc31)c1cccc(O[C@H]3O[C@H](CO)[C@@H](O)[C@H](O)[C@H]3O)c1C2=O [Cmpd 36],–,83±15,30±12,40 ± 7,–,–,–,–,–,–,–
"CC(=O)NCCc1ccc(O)c(-c2c(O)c(O)c3c(c2O)C(=O)c2c(cc(O)c(C(=O)O)c2C(=O)O)C3=O)c1 [Cmpd 40, Laccaic acid A]",–,80±10,21±9,82 ± 10,–,–,~5,~4,DNA-competitive inhibitor,reactivates expression of a set of methylation-silenced genes,reverses DNMT1-dependent oncogenic transformation and apoptosis
O=C(O)C(S)C(S)C(=O)O (stereo not drawn) [Cmpd 51],–,61±12,24±11,36 ± 7,–,–,–,–,–,–,–
